Assay results taken from patent US10668090B2, “Liver specific delivery-based antiviral prodrug nucleoside cyclophosphate compound and uses thereof” (ZHEJIANG PALO ALTO PHARMACEUTICALS, INC, priority 2016, dated 2020).
Where a name gives a salt, the structure may show the parent alone. Read-outs that look alike come from different tables or passages of the source.

Assays:
[1] = Formation of active molecules by in vitro metabolism with human liver microsomes; assay type: in vitro ADME; settings: 25 μM, pH 7.4
Procedure: Human liver microsomes used herein were purchased from In Vitro Technologies (IVT) Inc., Batch No.: SSP X008070, a mixed liver microsome extracted from the liver tissues of 150 donors. The metabolic activity of CYP3A4 in the liver microsomes of this batch was recorded in the product description to be 1.734 nmol/mg/min (a rate of metabolizing testosterone into […]). The test compounds were synthesized by Zhejiang Paloalto Pharmaceutical Technology Co., Ltd., and dissolved in methanol to produce a 25 mM stock solution. The enzymatic reaction was carried out in 100 μL of a reaction solution (100 mM Tris-HCl, 5 mM MgCl2, pH 7.4) at a test compound concentration of 25 μM and a human liver microsome concentration of 2 mg/mL, and NADPH was added to start the reaction (with a final concentration of 2 mM). After the reaction was performed in a constant temperature shaking water bath for 5 minutes, acetonitrile was quickly added to terminate the reaction at 1.5 times the volume of the reaction mixture. The collected samples were centrifuged at a maximum speed of 13,600 rpm for 20 minutes using an Eppendorf table top centrifuge. The supernatant was collected and dried with a nitrogen evaporator, and then redissolved with mobile phase A, which was an aqueous solution containing 5 mM of ammonium acetate and 0.05% formic acid by volume. The resulting solution was subjected to quantitative analysis using LS-MS/MS (Waters, Acquity UPLC HSS T3 column).

[2] = Procedure: Male SD rats weighing 180-300 g were provided by Shanghai Sippr-BK Laboratory Animals Co., Ltd. Male animals were adapted to the environment for more than 3 days and fasted for 12 hours but without water deprivation at the night before the experiment. PA1010 (compound 4-cis), PA1007 (compound 6-cis), TAF and TDF were respectively dissolved in a normal saline to prepare their corresponding solutions. Before the administration, the animal's body weight was checked whether it met the experimental requirements. 12 rats were selected for grouping, 2 rats in each group, and were intragastrically administered with a drug solution at 30 mg/kg. Rats were euthanized with carbon dioxide gas at 0.5, 1, 3, 6, 12 and 24 h, respectively. Blood samples were collected from the heart and stored in a heparin anticoagulation tube. Then the samples were centrifuged at 4° C. and 6,000 rpm for 5 minutes, and the plasma supernatant was stored in ice. The kidney and liver tissues of the rats were collected and rinsed with normal saline pre-cooled at 4° C., and then stored in ice after water was drained. After the experiment, the samples were stored at −80° C. in a refrigerator.
The kidney and liver tissues were disrupted and mixed thoroughly in normal saline 5 times the volume of the kidney and liver tissues to obtain a tissue homogenate sample. 100 μL of the rat plasma or tissue homogenate sample was mixed uniformly with 100 μL of 10% trichloroacetic acid precipitant containing 50 ng/mL of adefovir (internal standard) and the solvent thereof was prepared by methanol and acetonitrile in a volume ratio of 50:50. The mixture was centrifuged at 4° C. and 6000 rpm for 5 minutes, and all supernatant was treated with a SPE microextraction plate (MCX μElution Plate 30 μm, Waters). Finally, the microextraction plate was eluted with a methanol solution containing 5% ammonia, and 75 μL of the obtained eluent was transferred to a 384-well sample plate for analysis with an injection volume of 1 μL.
LC-MS/MS-AJ (Triple Quad 5500, AB SCIEX) was used for sample analysis. The chromatographic conditions were shown as follows: chromatographic column: Acquity UPLC HSS T3 (2.1×50 mm, 1.8 μm); column temperature: 40° C.; flow rate: 0.5 mL/min; mobile phase A: 0.1% formic acid aqueous solution and mobile phase B: an acetonitrile solution. The mass spectrometry conditions corresponding to the internal standard were shown as follows: electrospray ionization (ESI): positive ion mode; ion pair m/z monitored by multiple reaction monitoring (MRM): 288/176 (PMPA), 274/162 (PMEA); capillary voltage: 3.0 kV; temperature: 500° C.; desolvation gas flow: 1000 L/h; scanning time: 0.025 seconds; and collision energy: 25 V.
Bar charts of the concentration of PMPA in plasma, liver and kidney corresponding to time were respectively plotted. The area (AUC0-t) under the tissue concentration-time curve of PMPA was fitted using the log-linear trapezoidal method in a non-compartmental model of WinNonLin 6.2.1 (Pharsight, CA). The ratios of liver to kidney and liver to plasma of PMPA were obtained by calculating the ratio of their corresponding AUC0-t.

[3] = male, SD, rat, in vivo, po, 30 mg/kg
[4] = rats, intragastric 30 mg/kg, 0.5-24 h, kidney
[5] = rats, intragastric 30 mg/kg, 0.5-24 h
[6] = rats, intragastric 30 mg/kg, 0.5-24 h, plasma

Compound | Average rate of PMPA production in 5 minutes [1] [pmol/min/mg HLM] | Exposure (AUC0-t) of the active molecule PMPA in kidney [2, 4] [ng·h/g] | Exposure (AUC0-t) of the active molecule PMPA in liver [2, 5] [ng·h/g] | Exposure (AUC0-t) of the active molecule PMPA in plasma [2, 6] [ng·h/g] | further results
C[C@H](Cn1cnc2c(N)ncnc21)OCP1(=O)OCC[C@@H](c2cccc(Cl)c2F)O1 (mixture of isomers) [Compound 1, (2R)-9-{2-[(4S)-4-(3-chloro-2-fluorophenyl)-2-oxo-1,3,2-dioxaphosphorinan-2-yl]methoxypropyl}adenine] | 33.8 | – | – | – | –
C[C@H](Cn1cnc2c(N)ncnc21)OCP1(=O)OCC[C@@H](c2cc(F)cc(Cl)c2)O1 (mixture of isomers) [Compound 2, (2R)-9-{2-[(4S)-4-(3-chloro-5-fluorophenyl)-2-oxo-1,3,2-dioxaphosphorinan-2-yl]methoxypropyl}adenine] | 46.8 | – | – | – | –
C[C@H](Cn1cnc2c(N)ncnc21)OCP1(=O)OCC[C@@H](c2ccc(F)c(Cl)c2)O1 (mixture of isomers) [Compound 3, (2R)-9-{2-[(4S)-4-(3-chloro-4-fluorophenyl)-2-oxo-1,3,2-dioxaphosphorinan-2-yl]methoxypropyl}adenine] | 22.2 | – | – | – | –
C[C@H](Cn1cnc2c(N)ncnc21)OCP1(=O)OCC[C@@H](c2cccc(Cl)c2)O1 (mixture of isomers) [Compound 7, (2R)-9-{2-[(4S)-4-(3-chlorophenyl)-2-oxo-1,3,2-dioxaphosphorinan-2-yl]methoxypropyl}adenine, reference compound] | 27.5 | – | – | – | –
C[C@H](Cn1cnc2c(N)ncnc21)OC[P@@]1(=O)OCC[C@@H](c2cc(Cl)ccc2F)O1 [Compound 4-cis, (2R)-9-{2-[(2R, 4S)-4-(5-chloro-2-fluorophenyl)-2-oxo-1,3,2-dioxaphosphorinan-2-yl]methoxypropyl}adenine] | – | – | – | – | exposure level of PMPA in the liver, times that released from TAF ([2]; male, SD, rat, in vivo): 1.5 times; exposure level of PMPA in the liver, times that released from TDF ([2]; male, SD, rat, in vivo): 2.9 times; Liver-kidney Ratio of PMPA AUC0-t [2, 3]: 1.0; Liver-plasma Ratio of PMPA AUC0-t [2, 3]: 51.4; PMPA level in liver tissues compared with TAF and TDF at the corresponding time points ([2]; rat, in vivo): significantly higher; exposure level of PMPA in the kidney compared with TAF and TDF ([2]; rat, in vivo): significantly lower; Exposure (AUC0-t) of the active molecule PMPA in kidney ([2]; rat, in vivo, po, 30 mg/kg): 234298 ng·h/g; Exposure (AUC0-t) of the active molecule PMPA in plasma ([2]; rat, in vivo, po, 30 mg/kg): 4332 ng·h/g
C[C@H](Cn1cnc2c(N)ncnc21)OC[P@@]1(=O)OCC[C@@H](c2cc(F)cc(Cl)c2)O1 [Compound 6-cis, (2R)-9-{2-[(2R, 4S)-4-(3-chloro-5-fluorophenyl)-2-oxo-1,3,2-dioxaphosphorinan-2-yl]methoxypropyl}adenine] | 75.8 | 65393 | 76075 | 1272 | exposure level of PMPA in the kidney compared with TAF and TDF ([2]; rats, intragastric 30 mg/kg): significantly lower
CC(C)OC(=O)[C@H](C)N[P@](=O)(CO[C@H](C)Cn1cnc2c(N)ncnc21)Oc1ccccc1 [TAF, tenofovir alafenamide, reference compound] | – | 297233 | 148407 | 4892 | –
CC(C)OC(=O)OCOP(=O)(CO[C@H](C)Cn1cnc2c(N)ncnc21)OCOC(=O)OC(C)C [TDF, tenofovir disoproxil fumarate, reference compound] | – | 319562 | 78050 | 3097 | –
